Test results: US9452170B2, “Compounds and methods for inducing chondrogenesis” (The California Institute for Biomedical Research, priority 2013, dated 2016)

tested on: Human MSCs; test: Human chondrocyte differentiation assay (immunostaining for type II collagen, Sox9 and COMP); assay type: cell-based; settings: 168 h, compound 1 μM, 7 days, vs DMSO vehicle, read-out: Biological Activity (increase in staining intensity compared to vehicle control)
Method: Human MSCs (50,000) were plated into each well of a 96-well plate and cultured overnight. Compounds (in DMSO solution) were added to the cells at a final concentration of 1 μM, and the cells were cultured for 7 days at 5% CO2, 37° C. The cells were fixed with 10% formalin solution at room temperature for 10 min, and immunostained using antibodies specific for type II collagen (Abcam), Sox9 (Santa Cruz) and cartilage oligomeric matrix protein (COMP, Santa Cruz), and fluorescently labeled secondary antibodies (Li-Cor). The total intensity of the staining was measured using Oddyssey CLx imaging system (Li-Cor). Vehicle (DMSO) was used as control to determine the basal level of chondrocyte differentiation. […] Representative data are shown in Table 1 [A: >50% increase in staining intensity compared to vehicle control; B: 30-50% increase in staining intensity compared to vehicle control].

Row | Structure (SMILES) | activation at 1 µM [%]
1 | CN(c1ccccc1C(=O)Nc1ccc(C#N)cc1)S(C)(=O)=O [Compound 78] | 30 to 50
2 | COCCS(=O)(=O)Nc1ccccc1C(=O)Nc1ccc(C#N)cc1 [Compound 79] | 30 to 50
3 | O=C(O)c1ccccc1C(=O)Nc1ccon1 [Compound 80] | 30 to 50
4 | O=C(O)c1ccccc1C(=O)NCCOc1ccccc1 [Compound 81] | 30 to 50
5 | Cc1cc(NC(=O)c2ccccc2C(=O)O)n[nH]1 [Compound 82] | > 50
6 | O=C(O)c1ccccc1C(=O)Nc1ccccc1OCC(F)(F)F [Compound 83] | > 50
7 | CC(CO)c1ccc(NC(=O)c2ccccc2C(=O)O)cc1 (stereo not shown) [Compound 84] | > 50
8 | Cc1ccc(NC(=O)c2ccccc2C(=O)O)c(F)c1 [Compound 85] | 30 to 50
9 | O=C(O)c1ccccc1C(=O)NCc1ccccc1OC(F)F [Compound 86] | 30 to 50
10 | COc1ccc(OC)c(NC(=O)c2ccccc2C(=O)O)c1 [Compound 87] | 30 to 50
11 | O=C(O)c1ccc(CNC(=O)c2cccc(F)c2C(=O)O)cc1 [Compound 93] | 30 to 50
12 | O=C(O)c1ccc(CNC(=O)c2c(F)cccc2C(=O)O)cc1 [Compound 94] | 30 to 50
13 | O=C(O)c1ccc(CNC(=O)c2ccccc2C(=O)O)c(Cl)c1 [Compound 96] | 30 to 50
14 | O=C(O)c1ccc(CNC(=O)c2cccc(Cl)c2C(=O)O)cc1 [Compound 99] | 30 to 50
15 | O=C(O)c1ccc(CNC(=O)c2c(Cl)cccc2C(=O)O)cc1 [Compound 100] | 30 to 50
16 | COc1cccc(C(=O)NCc2ccc(C(=O)O)cc2)c1C(=O)O [Compound 103] | > 50
17 | COc1cccc(C(=O)O)c1C(=O)NCc1ccc(C(=O)O)cc1 [Compound 104] | > 50
18 | O=C(O)c1ccccc1C(=O)Nc1ccc(OCCO)cc1 [Compound 105] | 30 to 50
19 | COc1ccc(C(=O)NCc2ccc(C(=O)O)cc2)c(C(=O)O)c1 [Compound 106] | 30 to 50
20 | CN(c1cccc(NC(=O)c2ccccc2C(=O)O)c1)S(C)(=O)=O [Compound 107] | 30 to 50
21 | O=C(Nc1ccccc1S(=O)(=O)N1CCOCC1)c1cccc(F)c1 [Compound 110] | 30 to 50
22 | O=C(Nc1ccccc1S(=O)(=O)N1CCOCC1)c1ccccc1F [Compound 118] | 30 to 50

Row | Structure (SMILES) | activation at 1 µM [%]
23 | CS(=O)(=O)Nc1ccccc1C(=O)NCc1ccc(C(=O)O)cc1 [Compound 120] | 30 to 50
24 | CC(=O)c1cccc(C(=O)Nc2ccccc2S(=O)(=O)N2CCOCC2)c1 [Compound 122] | > 50
25 | CN(CCO)S(=O)(=O)c1ccccc1NC(=O)c1ccc(F)cc1 [Compound 125] | 30 to 50
26 | O=C(Nc1ccccc1S(=O)(=O)N1CCOCC1)c1ccc(-c2ccccc2)cc1 [Compound 133] | 30 to 50
27 | O=C(Nc1ccccc1S(=O)(=O)N1CCS(=O)(=O)CC1)c1ccc(F)cc1 [Compound 141] | 30 to 50
28 | CC(=O)Nc1ccc(NC(=O)c2ccccc2C(=O)O)cc1 [Compound 142] | 30 to 50
29 | CC(=O)CCc1cccc(NC(=O)c2ccccc2C(=O)O)c1 [Compound 145] | 30 to 50
30 | O=C(O)c1ccc(C(=O)Nc2ccccc2S(=O)(=O)N2CCOCC2)cc1 [Compound 147] | 30 to 50
31 | O=C(O)c1ccccc1C(=O)Nc1ccc(CCCO)cc1OC(F)(F)F [Compound 148] | 30 to 50
32 | COc1cc(CNC(=O)c2ccccc2C(=O)O)ccc1C(=O)O [Compound 154] | 30 to 50
33 | N#Cc1cc(CNC(=O)c2ccccc2C(=O)O)ccc1C(=O)O [Compound 155] | > 50
34 | CCCS(=O)(=O)Nc1ccccc1C(=O)Nc1ccc(CCOC)cc1 [Compound 159] | 30 to 50
35 | COCCc1ccc(NC(=O)c2ccccc2NS(=O)(=O)C(C)C)cc1 [Compound 162] | 30 to 50
36 | O=C(O)Cc1ccc(CNC(=O)c2ccccc2C(=O)O)cc1 [Compound 164] | > 50
37 | CC(=O)Cc1ccc(CNC(=O)c2ccccc2C(=O)O)cc1 [Compound 166] | 30 to 50
38 | NC(=O)c1ccc(CNC(=O)c2ccccc2C(=O)O)cc1 [Compound 172] | 30 to 50
39 | O=C(O)c1cc(CCCO)ccc1NC(=O)c1ccccc1C(=O)O [Compound 176] | 30 to 50
40 | COc1cc(NC(=O)c2ccccc2C(=O)O)ccc1CCCO [Compound 178] | 30 to 50
41 | O=C(O)c1cc(F)ccc1C(=O)Nc1ccc(CCCO)cc1 [Compound 180] | 30 to 50
42 | O=C(Nc1ccc(CCCO)cc1)c1cccc(F)c1C(=O)O [Compound 181] | 30 to 50
43 | O=C(O)c1cccc(F)c1C(=O)Nc1ccc(CCCO)cc1 [Compound 182] | 30 to 50
44 | O=C(O)c1ccc(F)cc1C(=O)Nc1ccc(CCCO)cc1 [Compound 183] | 30 to 50

Row | Structure (SMILES) | activation at 1 µM [%]
45 | O=C(O)c1cc(Cl)ccc1C(=O)Nc1ccc(CCCO)cc1 [Compound 184] | 30 to 50
46 | O=C(Nc1ccc(CCCO)cc1)c1cccc(Cl)c1C(=O)O [Compound 185] | 30 to 50
47 | O=C(O)c1cccc(Cl)c1C(=O)Nc1ccc(CCCO)cc1 [Compound 186] | 30 to 50
48 | O=C(O)c1ccc(Cl)cc1C(=O)Nc1ccc(CCCO)cc1 [Compound 187] | 30 to 50
49 | Cc1cccc(C(=O)Nc2ccc(CCCO)cc2)c1C(=O)O [Compound 189] | > 50
50 | Cc1cccc(C(=O)O)c1C(=O)Nc1ccc(CCCO)cc1 [Compound 190] | > 50
51 | COC(=O)c1ccccc1NC(=O)Nc1cccc(C(C)=O)c1 [Compound 193] | 30 to 50
52 | COC(=O)c1ccccc1NC(=O)Nc1ccccc1C(F)(F)F [Compound 194] | 30 to 50
53 | COC(=O)c1ccccc1NC(=O)Nc1cccc(C(F)(F)F)c1 [Compound 195] | 30 to 50
54 | O=C(Nc1cccc(C(F)(F)F)c1)Nc1ccccc1C(=O)O [Compound 196] | 30 to 50
55 | COC(=O)c1ccccc1NC(=O)Nc1ccccc1C [Compound 197] | 30 to 50
56 | COC(=O)c1ccccc1NC(=O)Nc1ccc(C)cc1 [Compound 198] | 30 to 50
57 | Cc1ccccc1NC(=O)Nc1ccccc1C(=O)O [Compound 199] | 30 to 50
58 | COC(=O)c1ccccc1NC(=O)Nc1ccccc1 [Compound 200] | 30 to 50
59 | COC(=O)c1ccccc1NC(=O)Nc1ccc2ccccc2c1 [Compound 201] | 30 to 50
60 | COC(=O)c1ccccc1NC(=O)Nc1cccc(C#N)c1 [Compound 202] | > 50
61 | O=C(Nc1ccccc1)Nc1ccccc1C(=O)O [Compound 203] | 30 to 50
62 | CC(=O)c1cccc(NC(=O)Nc2ccccc2C(=O)O)c1 [Compound 204] | 30 to 50
63 | CC(=O)c1ccccc1NC(=O)Nc1ccccc1C(=O)O [Compound 205] | 30 to 50
64 | COC(=O)c1ccccc1NC(=O)Nc1ccc(C(C)=O)cc1 [Compound 206] | 30 to 50
